According to patent US20070270455A1, “INHIBITION OF NF-kB” (priority 2005, published 2007):
Residues, ends and D or L forms follow the SMILES beside them. *: point of attachment. Cbz = O=C(OCc1ccccc1)*

What was measured:
[1] = system: HT1080-sip53 and HT1080-siGFP cells; experiment: Cell survival assay in isogenic cell pairs with anti-p53 or control siRNA; assay type: cell-based, human; conditions: p53 plus vs minus cells; FIG. 4d
[2] = system: ACHN cells; experiment: ACHN tumor xenograft growth; assay type: in vivo, nude mice
Description: (§1) IC50% for each cell line and each drug was determined. Each point represents IC50% of particular cell line, which are grouped as follows: (i) black circles—RCC cell lines (ACHN, RCC9, RCC13, RCC29, RCC45, RCC54), (ii) red triangles—non-RCC cell lines (MCF7, HT1080, H1299, U20S, LNCaP, HCT116), (iii) green squares—normal kidney cells (NKE). […] 10^7 of ACHN cells were inoculated under the skin of nude mice. At the moment tumors achieved 5 mm in diameter QC administrations were started intraperitoneally, 50 mg/kg. 5FU (35 mg/kg) was used as a control. Tumor size was measured every other day and presented as a fold increase in tumor volume.
(§2) NIH Swiss athymic nude, male mice, 5-6 weeks old were purchased from Harlan. 5×10^6 of tumor cells were inoculated into the flank of mice in 100 μL of PBS. […] As vehicle, 50% DMSO solution in PBS was used. Tumor size was measured in three dimensions every other day.

[3] = system: p53; experiment: Western blot of p53 phosphorylation status in RCC45 cells; assay type: cell-based; conditions: 9AA 5 μM or dox 1 μM, 16 hours
Description: (§3) Western blot analysis of total protein lysates was performed using antibodies against p53 (DO1) and against specific sites of phosphorylation in p53. […] HCT116 cells were treated for 30 minutes with 1 μM PS-341. PS-341 was washed off after 30 minutes and cells were re-incubated in drug free medium prior to analysis at 3 hours or 16 hours post-treatment. […] Proteasome activity was determined by measuring the absorbance of free AMC generated by cleavage of an AMC-fluorogenic peptide. The proteasome activity of untreated cells was set at 100%. […] Cell lysates were isolated at the indicated hours after treatment and used for western blotting. […]
(§4) Cells were lysed in RIPA buffer (25 mM Tris HCl, pH7.2, 125 mM NaCl, 1% NP40, 1% sodium deoxycholate, 1 mM EDTA) containing 1 mM PMSF (Sigma), 10 μg/ml of aprotinin (Sigma) and 10 μg/ml of leupeptin (Sigma). Protein concentrations were determined with BioRad Dc protein assay kit. […] The following antibodies were used: anti-p53—monoclonal mouse DO1 (Santa-Cruz), anti-p21—monoclonal mouse F-5 (Santa-Cruz), anti-mdm2—monoclonal mouse SMP14 (Santa-Cruz). p53 phosphorylation status was analyzed using phospho-p53 sampler kit from Cell signaling according to manufacturer's recommendations, anti-p65—(C20, Santa Cruz), anti-phospho-p65—(ser536, Cell Signaling), anti-IκBa—(C21, Santa Cruz), anti-p50—(NLS, Santa Cruz). […]

[4] = system: RCC specimens and fragments of normal kidney; experiment: p53-responsive lacZ reporter in ex vivo organ cultures; assay type: cell-based; conditions: 24 hours, X-gal
Description: as §1
Fresh RCC specimens and fragments of normal kidney from the same patients were placed in short-term organ cultures in the media containing lentiviral vector carrying p53-responsive lacZ reporter (FIG. 10B) for 24 hours.

[5] = system: IκB; experiment: Western blot of IκB level and phosphorylation; assay type: cell-based; conditions: PC-3 cells, 10 μM; MCF7 cells
Description: as §3, §4

[6] = system: PC3 p53-negative or DU145 cells comprising mutant p53; experiment: Prostate cancer xenograft tumor growth; assay type: in vivo, mice; conditions: 100 mg/kg by oral gavage; control sterile water
From the text: Mice were also inoculated with 2×10^6 human prostate cancer cells using PC3 p53-negative or with DU145 cells comprising mutant p53. […] Tumor growth was reduced by ˜50% in quinacrine-treated mice.

[7] = system: RCC cell lines; experiment: Restoration of p53-mediated transactivation in RCC cell lines; assay type: cell-based; conditions: data not shown
[8] = system: HT1080ConALuC tumors; experiment: p53-dependent luciferase reporter in xenograft tumors; assay type: in vivo; conditions: intraperitoneal; 24 hours; nude mice
Description: (§5) HT1080ConALuC cells were inoculated into two flanks of nude mice. When tumors reach 5 mm in diameter, mice were injected intraperitoneally with indicated concentrations of the drugs (mg/kg, 3 mice per group). After 24 hours mice were sacrificed, tumors were isolated, lysed in Reporter Lysis Reagent (Promega) and luciferase activity was measured in […] of tumor proteins. Bars represent fold of induction of luciferase activity in tumors, treated with drugs over luciferase activity in tumors treated with vehicle. FIG. 5B: HT1080sip53 or HT1080siGFP cells were inoculated in the left and right flank of nude mice respectively.
as §2
The in vivo anti-tumor effects of aminoacridines were tested in a xenograft tumor model using HT1080 cells differing in their p53 status and carrying p53 luciferase reporters grown subcutaneously in nude mice.

[9] = system: RCC54 and RCC45, normal kidney epithelial cells; experiment: Sensitization to TRAIL, methylene blue assay; assay type: cell-based; conditions: RCC54, RCC45 vs normal kidney epithelial cells; combination with TRAIL
[10] = system: HT1080siGFP cells; experiment: Xenograft tumor growth, p53-expressing tumors; assay type: in vivo, nude mice; conditions: 50 mg/kg i.p. daily; 5FU 35 mg/kg for comparison
Description: as §5, §2

[11] = system: RCC45ConALacZ cells; experiment: p53-responsive reporter (ConALacZ) β-galactosidase assay in RCC45 cells; assay type: cell-based; conditions: compared with doxorubicin
Description: 2×10^4 of RCC45ConALacZ cells were plated into wells of 96 well plates in 200 μL of phenol-red free RPMI medium with standard additives. After overnight incubation library of chemical compounds in DMSO solution together with controls was added with the help of plastic bacterial replicators (200+/−100 nL). Final concentration of compounds was around 5 μg/ml. Negative control was DMSO, positive control was doxorubicin solution (0.2, 0.6 and 2 μM). After 24 hours lysis buffer with ONPG was added directly to the medium on ice. After 3 hours of incubation at 37° C., β-galactosidase activity was estimated by reading absorbance values Wallack 1420 plate reader (Perkin Elmer) at λ=430 nm.
For cotransfection set-up, 2×10^5 cells were plated into 6 well plates and, after overnight incubation, transfected with Lipofectamin Plus reagent (Gibco BRL) with 0.5 μg of reporter plasmids (p21-ConALuc or pNF-κBLuc) in combination with different concentrations of p53, Arf, Ss-IκB, or siHDM2 expressing plasmids. […] Luciferase activity and β-galactosidase activity was measured in lysates prepared 48 hours after transfection with Cell Lysis Buffer (Promega) by luciferase assay system (Promega) or β-galactosidase enzyme system (Promega). Luminometric and colorimetric reactions were read on the Wallack 1420 plate reader (Perkin Elmer). […]

[12] = system: H1299-NF-kBLuc cells; experiment: NF-κB-responsive luciferase reporter assay; assay type: cell-based; conditions: basal and TNF-induced (10 ng/ml)
[13] = system: HT1080sip53 cells; experiment: Xenograft tumor growth, p53-deficient tumors; assay type: in vivo, nude mice; conditions: 50 mg/kg i.p. daily
Description: as §5, §2

Question: For `CC(=O)O[C@H]1C(=O)[C@@]2(C)[C@H]([C@H](OC(=O)c3ccccc3)[C@]3(O)C[C@H](OC(=O)[C@H](O)[C@@H](NC(=O)c4ccccc4)c4ccccc4)C(C)=C1C3(C)C)[C@]1(OC(C)=O)CO[C@@H]1C[C@@H]2O` [paclitaxel], which “toxicity found to be p53-dependent (none = not p53-dependent)” value [1] is on record?
Answer: Its value is “none”.

Question: `O=c1[nH]cc(F)c(=O)[nH]1` [5FU, 5-fluorouracil] was tested. Which weight loss ([2]; 5FU 35 mg/kg) did it give?
Answer: Its weight loss is “up to 20%”.

Question: For `CC[C@@]1(O)C(=O)OCc2c1cc1n(c2=O)Cc2cc3ccccc3nc2-1` [camptothecin], which “toxicity found to be p53-dependent (none = not p53-dependent)” value [1] is on record?
Answer: Its value is “none”.

Question: `CC[C@]1(O)C[C@@H]2CN(CCc3c([nH]c4ccccc34)[C@@](C(=O)OC)(c3cc4c(cc3OC)N(C)[C@H]3[C@@](O)(C(=O)OC)[C@H](OC(C)=O)[C@]5(CC)C=CCN6CC[C@]43[C@@H]65)C2)C1` [vinblastine] was tested. Which “toxicity found to be p53-dependent (none = not p53-dependent)” value [1] did it give?
Answer: The value was “none”.

Question: Which “toxicity found to be p53-dependent (none = not p53-dependent)” value [1] does the source give for `COc1cccc2c1C(=O)c1c(O)c3c(c(O)c1C2=O)C[C@@](O)(C(=O)CO)C[C@@H]3O[C@H]1C[C@H](N)[C@H](O)[C@H](C)O1` [doxorubicin] here?
Answer: Its value is “none”.

Question: What about the p53 phosphorylation status [3] of the same compound?
Answer: Its p53 phosphorylation status is “did induce phosphorylation of p53”.

Question: What about the “expression of p53-responsive reporter in tumor samples” value [4] of the same compound?
Answer: The value was “not”.

Question: How did the “level of IκB” value [5] turn out when `CC(C)C[C@@H](C=O)NC(=O)[C@H](CC(C)C)NC(=O)[C@H](CC(C)C)NC(=O)OCc1ccccc1` [MG132] (Cbz-Leu-Leu-Leu-aldehyde) was run?
Answer: The value was “caused accumulation of phosphorylated forms of IkB”.

Question: `CCN(CC)CCCC(C)Nc1c2ccc(Cl)cc2nc2ccc(OC)cc12` (stereo not shown) [quinacrine, Quinacrine] was tested. Which “reduction of tumor growth” value [6] did it give?
Answer: Its value is roughly 50%.

Question: And the “RCC cell lines with restored p53-mediated transactivation” value [7]?
Answer: Its value is 9 out of 10.

Question: And the “weight loss (in words)” value ([2]; 50 mg/kg intraperitoneally)?
Answer: Its value is “without significant weight loss”.

Question: And the “inhibition of tumor growth” value ([2]; ACHN s.c. in nude mice, 50 mg/kg intraperitoneally)?
Answer: The value was “about 50%”.

Question: And the “activation of p53 in tumors” value [8]?
Answer: The value was “capable of activating p53 in tumors”.

Question: What about the TRAIL resistance [9] of the same compound?
Answer: Its TRAIL resistance is “inverted TRAIL resistance of tumor but not normal kidney cells”.

Question: And the “growth of p53-expressing tumors” value [10]?
Answer: The value was “inhibited growth of p53-expressing tumors to the same extend as 5FU”.

Question: And the “p53 reactivation / reporter induction (in words)” value [11]?
Answer: Its value is “intermediate level of activity”.

Question: What about the “expression of p53-responsive reporter in tumor samples” value [4] of the same compound?
Answer: The value was “induced expression of the p53-responsive reporter”.

Question: And the NF-κB-responsive reporter activity [12]?
Answer: Its NF-κB-responsive reporter activity is “inhibited basal and TNF-induced activity of the reporter”.

Question: What about the “growth of p53-deficient tumors” value [13] of the same compound?
Answer: The value was “no effect”.
